Assay results as given in paper PMC11242853, “The Antimicrobial Activity of Human Defensins at Physiological Non-Permeabilizing Concentrations Is Caused by the Inhibition of the Plasma Membrane H^+-ATPases” (International Journal of Molecular Sciences, 2024).
Where no end group is shown, it is not given here.

Tests used:
[1] = tested on: Pma1p H^+-ATPase; settings: Table 2; no reference given
Description: A whole-cell proton transport assay was used to evaluate the possible inhibition of the fungal Pma1p H^+-ATPase by defensins.
To measure proton pumping from Pma1p H^+-ATPase activity, a glucose-induced acid extrusion assay was performed as previously described with modifications. Briefly, cultures of C. albicans cells were grown to mid-log phase in SDB medium and washed twice in 100 mM Tris-HCl (pH 8.0). The cells were then resuspended in 50 mM KCl and maintained for 18 h at 4 °C to reduce metabolic activity to a minimum (starvation conditions). To determine external acidification, starved cells (approximately 10^7 cells/mL) were incubated for 15 min at 37 °C in the presence or absence of the defensins (2 x NPIC). Cells incubated with 20 µM human lactoferrin or 0.5 µM BM2 peptide were used as positive controls. The initial pH of the cell suspension was adjusted to approximately pH 6.8 with HCl, and glucose (final concentration of 2.5 mM) was immediately added to the cell suspension. The pH of the medium was recorded at 5-min intervals for 20 min using a SevenMulti S50-K pH meter (Mettler-Toledo, Greifensee, Switzerland) with a calibrated electrode (InLab 413, Mettler-Toledo) under constant stirring. Each experiment was repeated three times in an independent manner.

[2] = tested on: C. albicans cells; assay: Total cellular ATP (BacTiter-Glo); type: cell-based, Candida albicans; settings: for increase in ATP levels compared to the untreated control: defensins at NPIC, human lactoferrin 5 μM, BM2 peptide 0.25 μM, 10^6 cells/mL, BacTiter-Glo luminescence; for ATP increment: Table 2, no reference given
Description: Total ATP was measured using the BacTiter-Glo^TM Microbial Cell Viability Assay (Promega Co., Madison, WI, USA) according to the manufacturer’s instructions. […] Aliquots (100 µL) were incubated (90 min at 37 °C) with human defensins (NPICs). Human lactoferrin (5 μM) or BM2 peptide (0.25 μM) was used as positive controls. One hundred microliters of the incubation mixture was transferred to an opaque 96-well plate, mixed with an equal volume of BacTiter-Glo^TM reagent, and incubated for 15 min in the dark. The reagent uses a thermostable luciferase to generate luminescence in an ATP-dependent manner. The emitted luminescence was detected using a Varioskan Flash multimode reader (Thermo Scientific, Waltham, MA, USA) with a 10 s shaking and 1 s integration time. A calibration curve was generated for each experiment with ATP standards ranging from 1 to 1000 nM. All assays were performed at least three times in duplicate.

[3] = tested on: C. albicans cells; assay: Extracellular potassium measurement (K+-efflux, ICP-MS); type: cell-based, Candida albicans; settings: Table 2; no reference given
Description: Potassium measurements were performed via inductively coupled plasma mass spectrometry using an Agilent 7700x ICP-MS (Agilent Technologies, Santa Clara, CA, USA). C. albicans cells were cultured in SDB for 16–20 h at 30 °C. The cells were then subcultured in the same media to the mid-logarithmic growth phase and rapidly washed in sterile, deionized, double-distilled water. The cells (10^7 cells/mL) were immediately incubated with the peptides (NPIC) for 90 min at 37 °C. The tubes were centrifuged at 1100× g for 10 min and the supernatants were collected and stored at 4 °C until analysis. The percentage of cytosolic potassium released from cell suspensions treated with nystatin (50 μM) was determined in positive control assays. Total cellular K^+-content (100% value) was measured in the supernatant of cell suspensions previously treated with 0.5% (v/v) HClO4 alone, heated for 1 h at 95 °C, and centrifuged to remove cell debris. Results are expressed as the percentage (means ± SD) of K^+-release relative to the total cellular K^+-content from duplicates of at least three independent assays.

[4] = tested on: P. aeruginosa cells; assay: Oxygen consumption measurement (polarographic), P. aeruginosa; type: cell-based, Pseudomonas aeruginosa; settings: after 30 min; defensins 2 x NPIC, human lactoferrin 20 μM, piericidin A 32 µM; preincubated 15 min at 37 °C; untreated cells 83% ± 2%; means ± SD, three experiments
Description: Oxygen consumption by C. albicans and P. aeruginosa cells was determined by polarographically using a biological oxygen monitor (dual digital-model 20; Rank Brothers Ltd., Cambridge, UK) at 25 °C. The apparatus consisted of a twin water-jacketed closed sample chamber, which enabled a control experiment to be conducted concurrently. The cells were grown to mid-log phase in SDB (C. albicans) or TSB (P. aeruginosa), washed twice in Tris buffer, and resuspended in the same buffer. Cell suspensions (approximately 10^7 cells/mL) were preincubated with defensins (2 x NPIC), human lactoferrin (20 μM), or piericidin A (32 μM) for 15 min at 37 °C. Oxygen consumption was recorded at 5-min intervals for a period of 30 min. Three independent experiments were performed, and the data are means ± SD.

[5] = tested on: Candida albicans ATCC 10231; assay: Antimicrobial spread-plate (CFU) killing assay, C. albicans; type: cell-based; settings: for candidacidal activity (comparison among defensins): 0–2 μM, 90 min at 37 °C, Tris buffer; for effect of high extracellular K+ on candidacidal activity: 50 mM KCl, defensins at NPIC, hLf 5 μM, BM2 0.25 μM, nystatin 50 μM; for non-permeabilizing inhibitory concentration (NPIC), C. albicans: antimicrobial concentration (≤10% viable cells) that permeabilized ≤10% of cells, 10^6 cells/mL, Tris buffer pH 7.4, 90 min at 37 °C, from Figure 1 data, duplicates of three experiments; for effect of piericidin A on candidacidal activity: cells preincubated 15 min at 37 °C with 32 µM piericidin A, then peptides (NPIC) 90 min; for effect of oligomycin A on candidacidal activity: preincubated 15 min at 37 °C with 16 μg/mL oligomycin A, peptides at NPIC
Description: To determine whether the above microbicidal concentrations exert a permeabilizing effect on fungal and bacterial membranes, the influx of the fluorescent nucleic acid-binding dye propidium iodide (PI) in cells incubated with the peptides was assessed. In cells, dye uptake reflects membrane permeabilization, as PI itself cannot permeate through an intact phospholipid bilayer. […] To select an antimicrobial but non-permeabilizing concentration of each peptide for further assays, we defined as a non-permeabilizing inhibitory concentration (NPIC) the antimicrobial inhibitory concentration (≤10% viable cells) that permeabilized ≤ 10% of cells incubated (90 min at 37 °C) in buffer solution.
Microbial susceptibility to the peptides was determined in a spread-plate assay as described previously. Briefly, cell suspensions (10^6 cells/mL) in Tris buffer (10 mM Tris-HCl, pH 7.4) were incubated for 90 min at 37 °C with 2-fold serial peptide dilutions. Peptide concentrations ranged from 0 to 2 μM. After incubation, the number of viable cells was determined by plating aliquots (100 μL) in duplicate on plates (SDA for C. albicans, TSA for P. aeruginosa, and M17G agarified medium for L. lactis) that had been dried for 30 min at room temperature in a laminar flow hood. Plates were incubated for 24–48 h at 30 °C (C. albicans and L. lactis) or 24 h at 37 °C (P. aeruginosa). Dilutions yielding 50–200 colonies were counted. Cell viability values, expressed as colony-forming units (CFUs), were calculated relative to the incubation without added peptides and represent the means ± standard deviation (SD) from duplicates of three independent experiments. For inhibition assays, unless otherwise noted, cell suspensions were preincubated (15 min at 37 °C) with the appropriate inhibitor prior to the addition of peptides, but the inhibitor was present throughout the incubation period with the peptide (90 min at 37 °C). Other specific experimental conditions are described as appropriate. In some experiments, the concentrations of human lactoferrin against C. albicans (5 μM), P. aeruginosa (1 μM), and L. lactis (0.065 μM) were used in the control assays. In various viability assays, BM2 peptide (0.25 μM), CCCP (50 μM), colistin (4 μg/mL), nystatin (50 μM), oligomycin A (16 μg/mL), piericidin A (32 μM), and TEA (10 mM) were used.

| Substance | Inhibition of H^+-extrusion (yeast) [1] | increase in ATP levels compared to the untreated control [2] | Partial K^+-efflux [3] | O2 consumption of P. aeruginosa [4] | candidacidal activity (comparison among defensins) [5] | effect of high extracellular K+ on candidacidal activity [5] | Cell death inhibitors, extracellular: Tok1p inhibitors (TEA) ([5]; Table 2, no reference given) | Cell death inhibitors, intracellular: Oligomycin A ([5]; Table 2, no reference given) | Cell death inhibitors, intracellular: Piericidin A ([5]; Table 2, no reference given, tested on C. albicans and P. aeruginosa in this study) | non-permeabilizing inhibitory concentration (NPIC), C. albicans [5] [µM] | effect of piericidin A on candidacidal activity [5] | effect of oligomycin A on candidacidal activity [5] | ATP increment [2] |
| --- | --- | --- | --- | --- | --- | --- | --- | --- | --- | --- | --- | --- | --- |
| HNP-1: human α-defensin, UniProtKB P59665, 30 amino acids, three disulfide bonds; purchased from PeptaNova | Yes | ~ 7 fold | Yes | 72% ± 2% | highest candidacidal activity | significantly protected | Yes | Yes | Yes | 0.25 | significantly less susceptible | significantly (p < 0.001) less susceptible |  |
| HNP-4: human α-defensin, UniProtKB P12838, 33 amino acids; purchased from PeptaNova (VCSCRLVFCRRTELRVGNCLIGGVSFTYCCTRV; ends and bridges not checked; cysteine pairing not given here; UniProt P12838 64-96, looked up) | Yes | ~ 8 fold | Yes | 75% ± 2% |  | significantly protected | Yes [69] ND Yes ND ND ND ND ND ND |  |  | 0.25 | significantly less susceptible | significantly (p < 0.001) less susceptible | Yes |
| hBD-3: human β-defensin, UniProtKB Q5U7J2, 45 amino acids; purchased from PeptaNova (GIINTLQKYYCRVRGGRCAVLSCLPKEEQIGKCSTRGRKCCRRKK; Beta-defensin 103; UniProt P81534 23-67, looked up) | Yes | ~ 6 fold | Yes | 82% ± 4% | highest candidacidal activity | significantly protected | Yes |  |  | 0.125 | significantly less susceptible | significantly (p < 0.001) less susceptible | Yes |
